# Test results published in US20150087673A1, “METHODS FOR USING AND BIOMARKERS FOR AMPK-ACTIVATING COMPOUNDS” (RIGEL PHARMACEUTICALS, INC., priority 2013, published 2015).
# Test system: AMPK
# Experiment: AMPK activation assay (enzyme-linked immunosorbent assay)
# Assay type: cell-based
# How it was run: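 Activation by each compound is measured using a conventional commercial immunoassay kit.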
row,EC50 [µM],Structure (SMILES)
1,< 0.5,"O=C(N[C@H]1CC[C@@H](Oc2cc(F)cc(F)c2)CC1)c1ccc(C(=O)N2CCC(Oc3ccc(F)cc3)CC2)cn1 [Compound 299, N-((cis)-4-(3,5-difluorophenoxy)cyclohexyl)-5-(4-(4-fluorophenoxy)piperidine-1-carbonyl)picolinamide]"
2,0.5 to 1,"CC(=O)Nc1ccc(OC2CCN(C(=O)c3ccc(C(=O)NC4CCN(Cc5ccc(F)cc5)CC4)cn3)CC2)cc1 [Compound 406, 6-(4-(4-acetamidophenoxy)piperidine-1-carbonyl)-N-(1-(4-fluorobenzyl)piperidin-4-yl)nicotinamide]"
3,< 0.5,"N#Cc1ccc(CN2CCC(NC(=O)c3ccc(C(=O)N4CCC(C(=O)c5ccc(-n6cccn6)cc5)CC4)nc3)CC2)cc1 [Compound 393, 6-(4-(4-(1H-pyrazol-1-yl)benzoyl)piperidine-1-carbonyl)-N-(1-(4-cyanobenzyl)piperidin-4-yl)nicotinamide]"
4,< 0.5,"O=C(N[C@H]1CC[C@@H](Oc2ccc(F)cc2)CC1)c1ccc(C(=O)N2CCC(C(=O)c3ccc(F)cc3)CC2)cn1 [Compound 304, 5-(4-(4-fluorobenzoyl)piperidine-1-carbonyl)-N-((cis)-4-(4-fluorophenoxy)cyclohexyl)picolinamide]"
5,0.5 to 1,"CC(=O)Nc1cccc(OC2CCN(C(=O)c3ccc(C(=O)NC4CCN(Cc5cccc(OC(F)(F)F)c5)CC4)cn3)CC2)c1 [Compound 429, 6-(4-(3-acetamidophenoxy)piperidine-1-carbonyl)-N-(1-(3-(trifluoromethoxy)benzyl)piperidin-4-yl)nicotinamide]"
6,1 to 5,"CS(=O)(=O)c1ccc(OC2CCN(C(=O)c3ccc(C(=O)NC4CCN(Cc5ccc(F)cc5)CC4)cn3)CC2)cc1 [Compound 396, N-(1-(4-fluorobenzyl)piperidin-4-yl)-6-(4-(4-(methylsulfonyl)phenoxy)piperidine-1-carbonyl)nicotinamide]"
7,> 10,"N#Cc1ccc(CN2CCC(NC(=O)c3ccc(C(=O)N4CCC(Oc5ccc(NC(=O)CCOCCOCCOCCOCCNC(=O)CCC[C@@H]6SC[C@@H]7NC(=O)N[C@@H]76)cc5)CC4)nc3)CC2)cc1 [Compound 371, N-(1-(4-cyanobenzyl)piperidin-4-yl)-6-(4-(4-(17-oxo-20-((3aS,4S,6aR)-2-oxohexahydro-1H-thieno[3,4-d]imidazol-4-yl)-4,7,10,13-tetraoxa-16-azaicosanamido)phenoxy)piperidine-1-carbonyl)nicotinamide]"
8,< 0.5,"COc1ccc(C(=O)C2CCN(C(=O)c3ccc(C(=O)NCCOc4ccc(F)cc4)nc3)CC2)cc1 [Compound 305, N-(2-(4-fluorophenoxy)ethyl)-5-(4-(4-methoxybenzoyl)piperidine-1-carbonyl)picolinamide]"
9,< 0.5,"N#Cc1ccc(CN2CCC(NC(=O)c3ccc(C(=O)N4CCC(Oc5ccc(S(=O)(=O)C(F)(F)F)cc5)CC4)cn3)CC2)cc1 [Compound 415, N-(1-(4-cyanobenzyl)piperidin-4-yl)-5-(4-(4-(trifluoromethylsulfonyl)phenoxy)piperidine-1-carbonyl)picolinamide]"
10,1 to 5,"O=C(Nc1ccc(Oc2ccc(F)cc2)nc1)c1ccc(C(=O)N2CCC(Oc3ccc(NS(=O)(=O)C4CC4)cc3)CC2)nc1 [Compound 449, 6-(4-(4-(cyclopropanesulfonamido)phenoxy)piperidine-1-carbonyl)-N-(6-(4-fluorophenoxy)pyridin-3-yl)nicotinamide]"
11,< 0.5,"N#Cc1ccc(CN2CCC(NC(=O)c3ccc(C(=O)N4CCC(Oc5ccc(C#N)cc5)CC4)nn3)CC2)cc1 [Compound 388, N-(1-(4-cyanobenzyl)piperidin-4-yl)-6-(4-(4-cyanophenoxy)piperidine-1-carbonyl)pyridazine-3-carboxamide]"
12,< 0.5,"CN1CCN(c2ccc(C(=O)C3CCN(C(=O)c4ccc(C(=O)NC5CCN(Cc6ccc(C#N)cc6)CC5)nc4)CC3)cc2)CC1 [Compound 380, N-(1-(4-cyanobenzyl)piperidin-4-yl)-5-(4-(4-(4-methylpiperazin-1-yl)benzoyl)piperidine-1-carbonyl)picolinamide]"
13,> 10,"COc1ccc(OC2CCN(C(=O)c3ccc(C(=O)NC4CCN(Cc5ccc(C#N)cc5)CC4)cn3)CC2)c(NC(C)=O)c1 [Compound 383, 6-(4-(2-acetamido-4-methoxyphenoxy)piperidine-1-carbonyl)-N-(1-(4-cyanobenzyl)piperidin-4-yl)nicotinamide]"
14,< 0.5,"O=C(NC1CCN(Cc2ccc(OC(F)(F)F)cc2)CC1)c1ccc(C(=O)N2CCC(Oc3ccc(C(=O)C4CC4)cc3)CC2)nc1 [Compound 455, 6-(4-(4-(cyclopropanecarbonyl)phenoxy)piperidine-1-carbonyl)-N-(1-(4-(trifluoromethoxy)benzyl)piperidin-4-yl)nicotinamide]"
15,< 0.5,"COc1ccc(CN2CCC(NC(=O)c3ccc(C(=O)N4CCC(C(=O)c5ccc(F)c(F)c5)CC4)cn3)CC2)cc1 [Compound 329, 5-(4-(3,4-difluorobenzoyl)piperidine-1-carbonyl)-N-(1-(4-methoxybenzyl)piperidin-4-yl) picolinamide]"
16,< 0.5,"N#Cc1ccc(CN2CCC(NC(=O)c3ccc(C(=O)N4CCN(c5ccc(C#N)cc5)CC4)cn3)CC2)cc1 [Compound 340, N-(1-(4-cyanobenzyl)piperidin-4-yl)-5-(4-(4-cyanophenyl)piperazine-1-carbonyl)picolinamide]"
17,< 0.5,"COc1ccc(C(=O)C2CCN(c3ccc(C(=O)NC4CCN(Cc5ccc(C#N)cc5)CC4)nn3)CC2)cc1 [Compound 362, N-(1-(4-cyanobenzyl)piperidin-4-yl)-6-(4-(4-methoxybenzoyl)piperidin-1-yl)pyridazine-3-carboxamide]"
18,< 0.5,"COc1ccc(C(=O)C2CCN(C(=O)c3ccc(C(=O)N[C@@H]4CCN(Cc5ccc(N6CCCC6)cc5)C[C@H]4F)cn3)CC2)cc1 (relative stereo) [Compound 352, N-((trans)-3-fluoro-1-(4-(pyrrolidin-1-yl)benzyl)piperidin-4-yl)-6-(4-(4-methoxybenzoyl)piperidine-1-carbonyl)nicotinamide]"

# The remaining lines, values behind:
row,Structure (SMILES),EC50 [µM]
1,"COc1ccc(C(=O)C2CCN(C(=O)c3ccc(C(=O)NC4CCN(Cc5ccc(F)cc5)CC4)nc3)CC2)cc1 [Compound 178, N-(1-(4-fluorobenzyl)piperidin-4-yl)-5-(4-(4-methoxybenzoyl)piperidine-1-carbonyl)picolinamide]",< 0.5
2,"N#Cc1ccc(CN2CCC(NC(=O)c3ccc(C(=O)Nc4cnn(Cc5ccc(C#N)cc5)c4)cn3)CC2)cc1 [Compound 43, N^5-(1-(4-cyanobenzyl)-1H-pyrazol-4-yl)-N^2-(1-(4-cyanobenzyl)piperidin-4-yl)pyridine-2,5-dicarboxamide]",1 to 5
3,"COc1ccc(C(=O)C2CCN(C(=O)c3ccc(C(=O)N[C@H]4CC[C@@H](Oc5ccc(C#N)c(F)c5)CC4)nc3)CC2)cc1 [Compound 198, N-((cis)-4-(4-cyano-3-fluorophenoxy)cyclohexyl)-5-(4-(4-methoxybenzoyl)piperidine-1-carbonyl)picolinamide]",< 0.5
4,"O=C(c1ccc(N2CCC(Oc3ccc(C(F)(F)F)cc3)CC2)nc1)N1CCN(Cc2ccc(F)cc2)CC1 [Compound 187, (4-(4-fluorobenzyl)piperazin-1-yl)(6-(4-(4-(trifluoromethyl)phenoxy)piperidin-1-yl)pyridin-3-yl)methanone]",1 to 5
5,"CS(=O)(=O)Nc1ccc(CN2CCC(NC(=O)c3ccc(C(=O)N4CCC(C(=O)c5ccc(F)cc5F)CC4)nc3)CC2)cc1 [Compound 216, 6-(4-(2,4-difluorobenzoyl)piperidine-1-carbonyl)-N-(1-(4-(methylsulfonamido)benzyl)piperidin-4-yl)nicotinamide]",> 10
6,"CS(=O)(=O)c1ccc(OC2CCN(C(=O)c3ccc(C(=O)NC4CCN(Cc5ccc(N6CCCC6)cc5)CC4)nc3)CC2)cc1 [Compound 208, 5-(4-(4-(methylsulfonyl)phenoxy)piperidine-1-carbonyl)-N-(1-(4-(pyrrolidin-1-yl)benzyl)piperidin-4-yl)picolinamide]",< 0.5
7,"O=C(c1ccccc1)c1ccc(NC(=O)c2ccc(C(=O)N3CCN(Cc4ccc(F)cc4)CC3)cn2)cc1 [Compound 26, N-(4-benzoylphenyl)-5-(4-(4-fluorobenzyl)piperazine-1-carbonyl)picolinamide]",< 0.5
8,"O=C(c1ccc(C(=O)N2CCN(CCc3ccccc3)CC2)nc1)N1CCN(Cc2ccc(F)cc2)CC1 [Compound 88, (4-(4-fluorobenzyl)piperazin-1-yl)(6-(4-phenethylpiperazine-1-carbonyl)pyridin-3-yl)methanone]",1 to 5
9,"COc1ccc(S(=O)(=O)N2CCN(C(=O)c3ccc(C(=O)NC4CCN(Cc5ccc(C#N)cc5)CC4)nc3)CC2)cc1 [Compound 79, N-(1-(4-cyanobenzyl)piperidin-4-yl)-5-(4-(4-methoxyphenylsulfonyl)piperazine-1-carbonyl)picolinamide]",0.5 to 1
10,"N#Cc1ccc(CN2CCC(NC(=O)c3ccc(C(=O)N4CCC(Oc5ccc(F)c(F)c5)CC4)cn3)CC2)cc1 [Compound 158, N-(1-(4-cyanobenzyl)piperidin-4-yl)-5-(4-(3,4-difluorophenoxy)piperidine-1-carbonyl)picolinamide]",< 0.5
11,"N#Cc1ccc(CN2CCC(NC(=O)c3ccc(C(=O)N4CCN(C(=O)c5ccccc5)CC4)cn3)CC2)cc1 [Compound 80, 5-(4-benzoylpiperazine-1-carbonyl)-N-(1-(4-cyanobenzyl)piperidin-4-yl)picolinamide]",1 to 5
12,"N#Cc1ccc(CN2CCC(NC(=O)c3ccc(C(=O)N4CCC(Oc5ccc(F)cc5F)CC4)cn3)CC2)cc1 [Compound 282, N-(1-(4-cyanobenzyl)piperidin-4-yl)-5-(4-(2,4-difluorophenoxy)piperidine-1-carbonyl)picolinamide]",< 0.5
13,"COc1ccc(N2CCC(Nc3ccc(C(=O)NC4CCN(Cc5ccc(C#N)cc5)CC4)nc3)CC2)cc1 [Compound 275, N-(1-(4-cyanobenzyl)piperidin-4-yl)-5-(1-(4-methoxyphenyl)piperidin-4-ylamino)picolinamide]",< 0.5
14,"CC(c1ccccc1)N1CCC(NC(=O)c2ccc(C(=O)N3CCN(Cc4ccc(F)cc4)CC3)cn2)CC1 (centres unmarked) [Compound 18, 5-(4-(4-fluorobenzyl)piperazine-1-carbonyl)-N-(1-(1-phenylethyl)piperidin-4-yl)picolinamide]",< 0.5
